What all share (assay type): cell-based
One assay relates to S. aureus ATCC 29213. Put plainly: MIC by NCCLS microdilution, antibacterial agents with and without EPI. Conditions: for MIC: Staphylococcus aureus; for MIC in the presence of 4X MEC of EPI, VX-710: VX-710 100 μg/ml; for MIC in the presence of 4X MEC of EPI, VX-853: VX-853 6.25 μg/ml; for MIC in the presence of 4X MEC of EPI, reserpine: reserpine 25 μg/ml. As for the experimental part: 3% sterile laked horse blood (Quad Five, Ryegate, Mont.) was added to assays for E. faecalis and S. Pneumoniae. A final concentration of 1% DMSO was present in all assays. […]
A-106 and C-9 were tested at their respective MECs in combination with a variety of different classes of antibiotics against S. aureus ATCC 29213 (Table 2).
Background: In broth dilution the organism is exposed to a series of concentrations in liquid medium.

For assay [1], the system named is S. aureus clinical isolates. Put plainly: MIC90 studies: fluoroquinolone susceptibility of clinical isolate panel with EPI. Conditions: Staphylococcus aureus. As for the experimental part: (§1) Susceptibility studies with large panels of resistant clinical isolates were performed at Focus Technologies, Herndon, Va. according to NCCLS protocols (National Committee for Clinical Laboratory Standards, supra).
(§2) To be useful in combination therapy, an EPI needs to substantially reduce the MIC of an antibiotic to within the range of clinical susceptibility. Because many different resistance mechanisms are often present in clinical isolates, including the likelihood of multiple target-based mutations in addition to efflux mutations, the barrier to antibiotic efficacy is much greater. […] Oxacillin and vancomycin MICs were also determined to identify which isolates were methicillin-resistant (S. aureus) and vancomycin-resistant (E. faecalis).

In assay [2] the test system is S. aureus SA-1199B (NorA overproducing). Put plainly: MIC of fluoroquinolones with and without EPI. Conditions: S. aureus SA-1199B (NorA overproducer, GrlA A116E); no EPI. The text has this: (§3) A variety of strains may be used in these experiments, including, but not limited to, S. aureus ATCC 29213, E. faecalis ATCC 29212, and S. pneumoniae, S. aureus strains SA-1199, SA-1199B, SA-8325-4, and SA-K2068. S. aureus ATCC 29213, E. faecalis ATCC 29212, and S. pneumoniae ATCC 10015 were obtained from the American Type Culture Collection (Manassas, Va.). S. aureus strains SA-1199 (clinical isolate, susceptible), SA-1199B (SA-1199, NorA overproducing, also has A116E GrlA mutation), SA-8325-4 (NCTC 8325 cured of prophages), SA-K2068 (SA-8325-4, non-NorA multidrug efflux pump overproducing mutation) were obtained from Glenn Kaatz (Kaatz et al., “Identification and characterization of a novel efflux-related multidrug resistance phenotype in Staphylococcus aureus”, J. Antimicrob. Chemother. 50:833-838 (2002); 1993; Kaatz et al., “Phenothiazines and thioxanthenes inhibit multidrug efflux pump activity in Staphylococcus aureus”, Antimicrob. Agents Chemother. 47:719-726, Kaatz et al., “Efflux-mediated fluoroquinolone resistance in Staphylococcus aureus. Antimicrob. Agents Chemother.”, 37:1086-1094, 1993)).
(§4) 3% sterile laked horse blood (Quad Five, Ryegate, Mont.) was added to assays for E. faecalis and S. Pneumoniae. A final concentration of 1% DMSO was present in all assays.
(§5) Recent more hydrophobic fluoroquinolones such as gatifloxacin and moxifloxacin are less well recognized by NorA; however, recently one other pump in S. aureus has been described which also recognizes hydrophobic fluoroquinolones (Kaatz et al. 2002, supra). To investigate the potential of A-106 and C-9 to block the efflux of several fluoroquinolones in cells with constituitively over-expressed efflux pumps, we used S. aureus strains SA-1199B and K2068 (Table 3). […] Kaatz et al., “Phenothiazines and thioxanthenes inhibit multidrug efflux pump activity in Staphylococcus aureus”, Antimicrob. Agents Chemother. 47:719-726 (2003).

Assay [3] deals with S. aureus SA-K2068 (non-NorA multidrug efflux pump overproducing). Put plainly: microbe, parasite or virus in culture. Conditions: S. aureus K2068 (non-NorA MDR pump overproducer); no EPI.
Excerpt: as §3, §4, §5

Assay [4] relates to S. aureus SA-1199 (clinical isolate, susceptible). Put plainly: MIC of fluoroquinolones with and without EPI. Particulars: S. aureus SA-1199; no EPI.
Excerpt: as §3, §4

Assay [5] relates to E. faecalis clinical isolates. Put plainly: MIC90 studies: fluoroquinolone susceptibility of clinical isolate panel with EPI. Particulars: Enterococcus faecalis. The procedure: as §1, §2
Setting [6] is: ATCC29213, antibacterial agent alone, read-out: MIC, No EPI.

Where two headings read alike, the source gives them in different places.

In general, MIC refers to the lowest concentration found to suppress growth. On to `CC[C@H]1OC(=O)[C@H](C)[C@@H](O[C@H]2C[C@@](C)(OC)[C@@H](O)[C@H](C)O2)[C@H](C)[C@@H](O[C@@H]2O[C@H](C)C[C@H](N(C)C)[C@H]2O)[C@](C)(O)C[C@@H](C)CN(C)[C@H](C)[C@@H](O)[C@]1(C)O` [azithromycin], for which, in the assay on S. aureus ATCC 29213 (setting [6]), the MIC was found to be 1 mg/L. Also, in the assay on S. aureus ATCC 29213, the “MIC in the presence of 4X MEC of EPI, VX-710” value (“MIC in the presence … VX-710” below) came to 1 mg/L; the “MIC in the presence of 4X MEC of EPI, VX-853” value (“MIC in the presence … VX-853” below) amounted to 1 mg/L; the “MIC in the presence of 4X MEC of EPI, reserpine” value (shortened to “MIC in the presence … reserpine”) stood at 1 mg/L.
With `Cc1onc(-c2ccccc2)c1C(=O)N[C@@H]1C(=O)N2[C@@H]1SC(C)(C)[C@@H]2C(=O)O` [Oxacillin], the MIC in assay [1] (S. aureus clinical isolate 1) was 16 mg/L; in assay [1] (S. aureus clinical isolate 2), > 64 mg/L; in assay [1] (S. aureus clinical isolate 3), 32 mg/L; in assay [1] (S. aureus clinical isolate 4), > 64 mg/L; in assay [1] (S. aureus clinical isolate 5), 2 mg/L; in assay [1] (S. aureus clinical isolate 6) it was 16 mg/L. Further, the MIC in assay [1] (S. aureus clinical isolate 7) is 2 mg/L; in assay [1] (S. aureus clinical isolate 8) it was 4 mg/L; in assay [1] (S. aureus clinical isolate 9), 2 mg/L; in assay [1] (S. aureus clinical isolate 10), > 64 mg/L; in assay [1] (S. aureus clinical isolate 11) it was > 64 mg/L; in assay [1] (S. aureus clinical isolate 12), 2 mg/L. The MIC in assay [1] (S. aureus clinical isolate 13), in assay [1] (S. aureus clinical isolate 14) and in assay [1] (S. aureus clinical isolate 15) was > 64 mg/L each time.
As for `CC[C@H]1OC(=O)[C@H](C)[C@@H](O[C@H]2C[C@@](C)(OC)[C@@H](O)[C@H](C)O2)[C@H](C)[C@@H](O[C@@H]2O[C@H](C)C[C@H](N(C)C)[C@H]2O)[C@](C)(O)C[C@@H](C)C(=O)[C@H](C)[C@@H](O)[C@]1(C)O` [erythromycin], the MIC in the assay on S. aureus ATCC 29213 (setting [6]) was 0.25 mg/L. Besides, in the assay on S. aureus ATCC 29213, the “MIC in the presence … VX-710” value came to 0.25 mg/L; the “MIC in the presence … VX-853” value came to 0.25 mg/L; the “MIC in the presence … reserpine” value amounted to 0.25 mg/L.
Turning to `O=C(N[C@H](CO)[C@H](O)c1ccc([N+](=O)[O-])cc1)C(Cl)Cl` [chloramphenicol], in the assay on S. aureus ATCC 29213 (setting [6]), the minimum inhibitory concentration (MIC) worked out at 8 mg/L. In the assay with S. aureus ATCC 29213, the “MIC in the presence … VX-710” value stood at 8 mg/L; the “MIC in the presence … VX-853” value was found to be 8 mg/L; the “MIC in the presence … reserpine” value was 8 mg/L.
As to `CO/N=C(\C(=O)N[C@@H]1C(=O)N2C(C(=O)O)=C(CSc3nc(=O)c(=O)[nH]n3C)CS[C@H]12)c1csc(N)n1` [ceftriaxone], the MIC in the assay with S. aureus ATCC 29213 (setting [6]) amounted to 4 mg/L. In the assay on S. aureus ATCC 29213, the “MIC in the presence … VX-710” value was found to be 4 mg/L; the “MIC in the presence … VX-853” value amounted to 4 mg/L; the “MIC in the presence … reserpine” value was determined as 4 mg/L.
For the molecule `[Br-].c1ccc([P+](c2ccccc2)(c2ccccc2)c2ccccc2)cc1` [tetraphenylphosphonium bromide], the MIC in the assay with S. aureus ATCC 29213 (ATCC29213, read-out: MIC, No EPI, antibacterial agent alone) amounted to 16 mg/L. Also, in the assay with S. aureus ATCC 29213, the “MIC in the presence … VX-710” value turned out to be 4 mg/L; the “MIC in the presence … VX-853” value worked out at 8 mg/L; the “MIC in the presence … reserpine” value is 8 mg/L.
As for gentamicin [reference compound], the “MIC of antibacterial agent, EPI none” value with S. aureus ATCC 29213 (S. aureus ATCC 29213, no EPI) was 0.5 mg/L; in assay [2] it was 0.5 mg/L; in assay [3], 0.063 mg/L; in assay [4] it was 0.5 mg/L. Besides, in the assay with S. aureus ATCC 29213, the “MIC in the presence … VX-853” value came to 0.25 mg/L. For the same molecule, the “MIC, No EPI” value with S. aureus ATCC 29213 (antibacterial agent alone) was determined as 0.5 mg/L.
On to `CO[C@@H]1[C@@H](OC(N)=O)[C@@H](O)[C@H](Oc2ccc3c(O)c(NC(=O)c4ccc(O)c(CC=C(C)C)c4)c(=O)oc3c2C)OC1(C)C` [novobiocin], for which the minimum inhibitory concentration (MIC) in the assay with S. aureus ATCC 29213 (setting [6]) stood at 0.125 mg/L. Further, in the assay on S. aureus ATCC 29213, the “MIC in the presence … VX-710” value worked out at 0.063 mg/L; the “MIC in the presence … VX-853” value amounted to 0.063 mg/L; the “MIC in the presence … reserpine” value came out at 0.063 mg/L.
On to `CN[C@H](CC(C)C)C(=O)N[C@H]1C(=O)N[C@@H](CC(N)=O)C(=O)N[C@H]2C(=O)N[C@H]3C(=O)N[C@H](C(=O)N[C@H](C(=O)O)c4cc(O)cc(O)c4-c4cc3ccc4O)[C@H](O)c3ccc(c(Cl)c3)Oc3cc2cc(c3O[C@@H]2O[C@H](CO)[C@@H](O)[C@H](O)[C@H]2O[C@H]2C[C@](C)(N)[C@H](O)[C@H](C)O2)Oc2ccc(cc2Cl)[C@H]1O` [Vancomycin], for which the minimal inhibitory concentration (MIC) in assay [5] (read-out: MIC, No EPI, E. faecalis clinical isolate 1) is 1 mg/L; in assay [5] (read-out: MIC, No EPI, E. faecalis clinical isolate 2), 4 mg/L; in assay [5] (read-out: MIC, No EPI, E. faecalis clinical isolate 3) it was > 256 mg/L; in assay [5] (read-out: MIC, No EPI, E. faecalis clinical isolate 4) it was 1 mg/L; in assay [5] (read-out: MIC, No EPI, E. faecalis clinical isolate 5) it was 2 mg/L; in assay [5] (read-out: MIC, No EPI, E. faecalis clinical isolate 6), 2 mg/L. Further, the MIC in assay [5] (read-out: MIC, No EPI, E. faecalis clinical isolate 7) is 1 mg/L; in assay [5] (read-out: MIC, No EPI, E. faecalis clinical isolate 8), 128 mg/L; in assay [5] (read-out: MIC, No EPI, E. faecalis clinical isolate 9), 1 mg/L; in assay [5] (read-out: MIC, No EPI, E. faecalis clinical isolate 10), 2 mg/L; in assay [5] (read-out: MIC, No EPI, E. faecalis clinical isolate 11), 16 mg/L; in assay [5] (read-out: MIC, No EPI, E. faecalis clinical isolate 12) it was 4 mg/L. For the same molecule, the minimal inhibitory concentration (MIC) in assay [5] (read-out: MIC, No EPI, E. faecalis clinical isolate 13) is 2 mg/L; in assay [5] (read-out: MIC, No EPI, E. faecalis clinical isolate 14), 1 mg/L; in assay [5] (read-out: MIC, No EPI, E. faecalis clinical isolate 15), 4 mg/L; in assay [5] (read-out: MIC, No EPI, E. faecalis clinical isolate 16), 0.5 mg/L; in assay [5] (read-out: MIC, No EPI, E. faecalis clinical isolate 17), 4 mg/L; in assay [5] (read-out: MIC, No EPI, E. faecalis clinical isolate 18), > 256 mg/L. For the same molecule, the MIC was found to be 2 mg/L in assay [5] (read-out: MIC, No EPI, E. faecalis clinical isolate 19); 2 mg/L in assay [5] (read-out: MIC, No EPI, E. faecalis clinical isolate 20); 1 mg/L in assay [5] (read-out: MIC, No EPI, E. faecalis clinical isolate 21); 1 mg/L in assay [5] (read-out: MIC, No EPI, E. faecalis clinical isolate 22); 2 mg/L in assay [5] (read-out: MIC, No EPI, E. faecalis clinical isolate 23); 1 mg/L in assay [5] (read-out: MIC, No EPI, E. faecalis clinical isolate 24). Besides, the MIC in assay [5] (read-out: MIC, No EPI, E. faecalis clinical isolate 25) is 1 mg/L; in assay [5] (read-out: MIC, No EPI, E. faecalis clinical isolate 26), > 256 mg/L.
On to `CC(=O)NC[C@H]1CN(c2ccc(N3CCOCC3)c(F)c2)C(=O)O1` [linezolid], for which the minimum inhibitory concentration (MIC) in the assay with S. aureus ATCC 29213 (setting [6]) is 4 mg/L. Moreover, in the assay with S. aureus ATCC 29213, the “MIC in the presence … VX-710” value came out at 4 mg/L; the “MIC in the presence … VX-853” value came out at 4 mg/L; the “MIC in the presence … reserpine” value worked out at 4 mg/L.
